# “And” between values parts separate entries of the source, which are not always exact repeats. Equal entries are not always repeated.
# Columns and labels:
# FGF21 = assay: Immunoblotting of plasma and liver FGF21; type: in vivo, mouse
# Protocol: 1 Supplementary Figure 10. A57 is novel inhibitor of the CREB/CRTC2 protein complex. […]
# 20 e) Immunoblotting of plasma and liver FGF21 protein in Crtc2KO mice, which induced by a high
# 21 fat diet for 13 weeks then orally administered APC (20 mg/kg), A57 (20 mg/kg) or vehicle (VEH) for
# 1 3 weeks. Two technological repeats present a composite pool including 5 mice per group. One
# 2 representative result from three-independent experiments is shown here.
# 3 f) Relative plasma FGF21 (top) and liver FGF21 (bottom), normalized by R250 signaling or
# 4 ACTIN respectively, is shown here as a bar graph. Data are represented as mean ± SEM (n=5 per
# 5 group, two technological repeats present a composite pool). ns, p > 0.05; *, p < 0.05; **, p < 0.01; p
# 7 for this figure are provided as a Source data file.
# [1] = test system: cAMP in primary hepatocytes; assay: Measurement of cAMP levels; type: cell-based, mouse; settings: for cAMP, mean / cAMP: Gluc; for cAMP, mean: n=4 (Ctrl_Gluc 10.79); for cAMP: Supp. fig.3c, individual replicates
# Protocol: At the end of indicated treatments, primary hepatocytes were collected in lysis buffer. The cAMP contents of cell lysates were then determined using cAMP ELISA kits (R&D) and normalized by total protein content as determined by BCA assay (Thermo).
# AMPK = assay: Phospho-AMPK immunoblot in primary hepatocytes; type: cell-based, mouse; settings: for relative p-AMPK protein, mean: N=3 (0 μM = 1); for relative p-AMPK protein: Supp. fig.3e, individual replicates
# Protocol: (§1) Immunoblotting and immunoprecipitation assays were performed as previously described, with antibodies recognizing CREB, Ser133-P-CREB, AMPK, P-AMPK, AKT, P-AKT (Cell Signaling), PGC-1α (Merck), CRTC2 (Calbiochem), PCK1 (Santa Cruz), SREBP1 (Santa Cruz), SREBP2 (BD), HA (Convance), LXRα (Santa Cruz), FLAG (Sigma), GST (Covance), HIS (Abmart), GAPDH (AOGMA), α-TUBULIN (Abmart), β-ACTIN (Abmart), and other antibodies (Supplementary Table 3). For immunostaining assays, primary cultured hepatocytes seeded on coverslips were fixed with 4% paraformaldehyde for 20 min, permeabilized with 0.3% Triton X-100 in PBS, and then blocked by 5% normal goat serum and 0.3% Triton X-100 in PBS, followed by incubation with anti-CREB (1:1000), anti-P-CREB (1:1000), or anti-HA (1:3000) antibodies for 1 h at 4 °C. Slides were then washed, and after washing, slides were incubated with fluorochrome-conjugated secondary antibodies (Invitrogen). Slides were then washed and mounted with Vectashield mounting media containing 4, 6-diamidino-2-phenylindole (DAPI).
# 1 Supplementary Figure 3. APC inhibits gluconeogenesis independent of CREB-phosphorylation,
# 2 cell toxin or AMPK activation. […]
# 20 e) Phosphate-AMPK level in primary hepatocytes incubated with APC or metformin (MET) at
# 21 indicated concentrations (0–200 μM) for 30 minutes (top). Relative P-AMPK normalized by AMPK is […]
# [2] = biological target: T1, CREB / HA-CRTC2 interaction (Mus musculus, UniProt Q01147); assay: Co-immunoprecipitation of HA-CRTC2 with endogenous CREB, primary hepatocytes; type: cell-based; settings: for HA/CREB in CREB-COIP fraction: Fig 2b replicates, AD-HA-CRTC2 +
# T1 construct: expressed in transfected cells; host or cells: mouse primary hepatocytes infected with Ad-HA-Crtc2; CREB is endogenous
# T1 sequence (Q01147 whole entry): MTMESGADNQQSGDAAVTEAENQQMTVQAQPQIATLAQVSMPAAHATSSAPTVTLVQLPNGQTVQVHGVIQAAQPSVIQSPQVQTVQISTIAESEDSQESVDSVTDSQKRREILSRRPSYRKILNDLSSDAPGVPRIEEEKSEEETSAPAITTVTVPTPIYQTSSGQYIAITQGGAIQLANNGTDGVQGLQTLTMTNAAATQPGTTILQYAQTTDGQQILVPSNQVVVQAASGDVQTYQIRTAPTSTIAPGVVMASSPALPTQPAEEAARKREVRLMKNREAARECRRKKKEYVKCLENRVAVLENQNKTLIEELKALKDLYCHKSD
# Protocol: Fig. 2 APC blocks interaction between CREB and CRTC2. a Analysis of GST-CREB immunoprecipitated with overexpressed FLAG-CRTC2 from the lysates of HEK293T cells. APC (10 μM) was added to the culture media for 1 h and the following IP mixture. The relative gray density of FLAG in GST-pull-down fraction is shown as a bar graph (bottom). One of three independent experiments is presented (top, n = 3). Data are represented as mean ± SEM); P values were determined by one-way ANOVA followed Dunnett’s multiple comparisons test. b Analysis of HA-CRTC2 immunoprecipitated with endogenous CREB from primary hepatocyte lysates. APC (10 μM) was added to the culture media for 1-h before 30-min of stimulation with glucagon (Gluc, 100 nM) and the following IP mixture as indicated. Top panel presents one of three independent experiments, and the relative gray density of HA in CREB-IP-faction is shown as a bar graph (bottom, n = 3). Data are represented as mean ± SEM; P values were determined by one-way ANOVA followed Dunnett’s multiple comparisons test. c Immunoblotting analysis of endogenous CREB, CRTC2, and CBP interaction by an anti-CRTC2 antibody from the lysate of primary hepatocytes. APC (10 μM) was added to the culture media for 1-h before 30-min stimulation with glucagon. Related CREB and CBP normalized by CRTC2, respectively, in CRTC2-IP fractions. The top panel presents one of three independent experiments, and the relative gray density of CREB and CBP normalized to CRTC2 in the CRTC2-IP-faction is shown as a bar graph (bottom, n = 3). Data are represented as mean ± SEM; P values were determined by two-way ANOVA followed Bonferroni’s multiple comparisons test. d Immunoblotting analysis of protein GST-CREB recovered HIS-CRTC2-S171A proteins purified from E. coli. The addition of APC (5, 10, or 50 μM) in pull-down mixtures is indicated. The top part presents one of three independent experiments, and the relative gray density of HIS normalized to GST in GST-pull-down faction is shown as a bar graph (bottom, n = 3). Data are represented as mean ± SEM; P values were determined by one-way ANOVA followed Dunnett’s multiple comparisons test (compared with APC = 0).
# as §1
# [3] = 200 μM (first of two lines printed 200)
# [4] = 200 μM (second of two lines printed 200)
smiles,measurement,setting,value
"CC(C)=CCc1cc(C=CC(=O)O)cc(CC=C(C)C)c1O [APC, 3,5-diprenyl-4-hydroxycinnamic acid]",plasma and liver FGF21,"FGF21; Crtc2KO mice, oral 20 mg/kg, 3 weeks",did not further increase
same,"liver FGF21 in CRTC2, group mean (Mean 2)","FGF21; Supp. Fig.10 f down, CRTC2KO mice, n=3, VEH mean 2.47",2.579
same,Bands density of FGF21 in the liver,"FGF21; Supp. Fig.10 f down, CT2KO (CRTC2KO) mice, oral, individual replicates, Veh about 2.47",2.47 and 2.45 and 2.816
same,"Bands density, plasma FGF21 in CRTC2","FGF21; Supp. Fig.10 f up, CRTC2KO mice, individual replicates, VEH about 2.31",2.4404 and 2.52 and 2.451
same,"Bands density, plasma FGF21 in CRTC2, group mean (Mean 2)","FGF21; Supp. Fig.10 f up, CRTC2KO mice, n=3, VEH mean 2.31",2.47
same,"cAMP, mean",[1]; APC 0.5H,11.36 pmol/µg
same,"cAMP, mean",[1]; APC 1H,10.43 pmol/µg
same,"cAMP, mean",[1]; APC 5H,10.31 pmol/µg
same,cAMP,[1]; APC 0.5H,9.765 pmol/µg and 13.6965 pmol/µg and 13.5803 pmol/µg and 8.4137 pmol/µg
same,cAMP,[1]; APC 1H,10.9076 pmol/µg and 11.1137 pmol/µg and 11.3636 pmol/µg and 8.343 pmol/µg
same,cAMP,[1]; APC 5H,11.3502 pmol/µg and 9.481 pmol/µg and 11.2821 pmol/µg and 9.132 pmol/µg
same,cAMP accumulation induced by glucagon,[1]; primary hepatocytes,did not alter
same,"relative p-AMPK protein, mean",AMPK; 5 μM,0.9451
same,"relative p-AMPK protein, mean",AMPK; 10 μM,0.8939
same,"relative p-AMPK protein, mean",AMPK; 100 μM,0.906
same,"relative p-AMPK protein, mean",AMPK; [3],0.9865
same,"relative p-AMPK protein, mean",AMPK; [4],1.094
same,relative p-AMPK protein,AMPK; 5 μM,1.019 and 0.9566 and 0.8598
same,relative p-AMPK protein,AMPK; 10 μM,0.8723 and 0.8495 and 0.96
same,relative p-AMPK protein,AMPK; 100 μM,0.9495 and 0.9349 and 0.8336
same,relative p-AMPK protein,AMPK; [3],0.9904 and 0.9893 and 0.9798
same,relative p-AMPK protein,AMPK; [4],1.017 and 1.161 and 1.105
same,"relative p-AMPK protein, column mean","AMPK; mean over all concentrations, 0 μM included",0.971
same,phosphorylation of AMPK,"AMPK; primary hepatocytes, up to 200 μM",did not induce phosphorylation of AMPK
same,HA/CREB in CREB-COIP fraction,"[2]; APC +, Gluc +, APC in IP system +",93.4971 and 123.554 and 124.784
same,HA/CREB in CREB-COIP fraction,"[2]; APC +, Gluc +, APC in IP system -",234.39 and 222.083 and 222.525
same,HA/CREB in CREB-COIP fraction,"[2]; APC +, Gluc -, APC in IP system +",106.115 and 87.7697 and 106.142
same,HA/CREB in CREB-COIP fraction,"[2]; APC +, Gluc -, APC in IP system -",166.202 and 169.06 and 171.069
same,HA/CREB in CREB-COIP fraction,"[2]; APC -, Gluc +, APC in IP system +",192.388 and 190.79 and 193.652
same,HA/CREB in CREB-COIP fraction,"[2]; APC -, Gluc -, APC in IP system +",107.959 and 107.638 and 128.065
same,HA-tagged CRTC2 immunoprecipitated by anti-CREB antibody,"[2]; primary hepatocytes, with or without glucagon, APC 10 μM",greatly decreased

# Reference: paper PMC8752738, “A propolis-derived small molecule ameliorates metabolic syndrome in obese mice by targeting the CREB/CRTC2 transcriptional complex” (Nature Communications, 2022)
